Our source for the EC50 and solubility values is patent publication US20250382344A1, “Soluble GLP1/GIP/NPY2 Receptor Triple Agonists” (Boehringer Ingelheim International GmH, priority 2024, published 2025).

As usually defined, the solubility is the dissolved amount per volume that the medium holds.

One data set concerns the target T1, hGLP1R (Homo sapiens, UniProt P43220).
T1 construct: expressed in transfected cells; host or cells: HEK-293 CRE-luciferase reporter cells
The experiment in a line: hGLP1R CreLuc assay in 0.5% and 100% plasma (HEK-293 CRE-luciferase reporter cells). The data set is classed as cell-based. The settings on record: HEK-293 reporter cells. (In a reporter assay the amount or activity of a reporter protein is the signal.)

A further data set deals with T2, hGIPR (Homo sapiens, UniProt P48546).
T2 construct: expressed in transfected cells; host or cells: CHO CRE-luciferase reporter cells
T2 sequence (P48546 22-466): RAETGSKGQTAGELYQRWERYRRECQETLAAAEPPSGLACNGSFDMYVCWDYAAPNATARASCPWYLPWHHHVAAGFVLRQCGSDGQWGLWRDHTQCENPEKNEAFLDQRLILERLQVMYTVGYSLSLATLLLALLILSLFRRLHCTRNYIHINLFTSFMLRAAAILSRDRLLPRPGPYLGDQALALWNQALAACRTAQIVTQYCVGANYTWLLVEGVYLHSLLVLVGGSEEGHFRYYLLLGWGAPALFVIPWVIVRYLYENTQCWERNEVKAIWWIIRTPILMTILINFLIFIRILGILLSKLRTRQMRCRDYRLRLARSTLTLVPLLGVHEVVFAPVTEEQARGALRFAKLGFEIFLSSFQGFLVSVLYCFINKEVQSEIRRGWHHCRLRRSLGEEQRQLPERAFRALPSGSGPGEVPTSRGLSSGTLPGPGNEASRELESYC
Description: hGIPR CreLuc assay in 0.5% and 100% plasma (CHO CRE-luciferase reporter cells). Type of data set: cell-based.

Data set [1] is described as follows: Solubility in 0.1 M phosphate buffer at pH 7. Type of data set: physicochemical. The conditions noted are these: 0.1 M phosphate buffer at pH 7, 10 mg/mL final peptide concentration, shaking 2 hours at room temperature, peptides as TFA-salts, measured sample pH 6.5-7.0.
[2] abbreviates: 0.5% human plasma, read-out: hGLP1R 0.5% hP.
[3] abbreviates: 100% human plasma, read-out: hGLP1R 100% hP.
Setting [4] is: 0.5% human plasma, read-out: hGIPR 0.5% hP.

Each structure is given as a SMILES string. Where two headings read alike, the source gives them in different places. *1 amine or outer side, *2 acyl side, *3 side chain or, on linkers, in order; H or OH if unused. Where a SMILES comes first, the peptide text is derived from it. Side-chain parts run from the residue outwards. [ ]: non-standard residue; d: D form. The star is where a group is joined. C18 diacid = O=C(O)CCCCCCCCCCCCCCCCC(=O)*; γGlu = O=C(O)[C@H](CCC(=O)[*:2])N[*:1]; Aib = CC(C)(N)C(=O)O

T1 sequence (P43220 24-463): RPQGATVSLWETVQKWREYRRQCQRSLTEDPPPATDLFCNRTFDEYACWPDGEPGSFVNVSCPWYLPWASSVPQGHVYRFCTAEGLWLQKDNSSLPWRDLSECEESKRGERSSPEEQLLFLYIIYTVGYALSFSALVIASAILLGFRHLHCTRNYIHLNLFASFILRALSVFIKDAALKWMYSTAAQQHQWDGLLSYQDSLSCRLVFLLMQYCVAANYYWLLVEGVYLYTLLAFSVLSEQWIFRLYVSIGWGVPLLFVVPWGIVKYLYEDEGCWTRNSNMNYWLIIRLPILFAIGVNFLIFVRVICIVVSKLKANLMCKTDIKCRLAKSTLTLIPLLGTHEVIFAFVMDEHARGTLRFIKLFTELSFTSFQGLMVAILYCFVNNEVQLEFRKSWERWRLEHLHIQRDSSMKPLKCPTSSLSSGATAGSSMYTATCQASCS

Take `CC[C@H](C)[C@H](NC(=O)[C@H](CC(C)C)NC(=O)[C@H](C)NC(=O)[C@H](CCCNC(=N)N)NC(=O)[C@@H](NC(=O)[C@H](Cc1ccccc1)NC(=O)[C@H](C)NC(=O)C(C)(C)NC(=O)[C@H](CCC(N)=O)NC(=O)[C@H](C)NC(=O)[C@H](CCC(N)=O)NC(=O)[C@H](CCCCN)NC(=O)[C@H](CCC(=O)O)NC(=O)[C@H](CC(C)C)NC(=O)C(C)(C)NC(=O)[C@@H](NC(=O)[C@H](CO)NC(=O)[C@H](Cc1ccc(O)cc1)NC(=O)[C@H](CC(=O)O)NC(=O)[C@H](CO)NC(=O)[C@@H](NC(=O)[C@H](Cc1ccccc1)NC(=O)[C@@H](NC(=O)CNC(=O)[C@H](CCC(=O)O)NC(=O)C(C)(C)NC(=O)[C@@H](N)Cc1ccc(O)cc1)[C@@H](C)O)[C@@H](C)O)[C@@H](C)CC)C(C)C)C(=O)N[C@@H](CC(N)=O)C(=O)N[C@@H](CCCCNC(=O)[C@@H](N)CCCCNC(=O)CC[C@H](NC(=O)CC[C@H](NC(=O)CC[C@H](NC(=O)CC[C@H](NC(=O)CC[C@H](NC(=O)CC[C@H](NC(=O)CCCCCCCCCCCCCCCCC(=O)O)C(=O)O)C(=O)O)C(=O)O)C(=O)O)C(=O)O)C(=O)O)C(=O)NC(C)(C)C(=O)N[C@H](C(=O)N[C@@H](CCCNC(=N)N)C(=O)N[C@@H](CCC(N)=O)C(=O)N[C@@H](CCCNC(=N)N)C(=O)N[C@@H](Cc1ccc(O)cc1)C(N)=O)[C@@H](C)O` [Compound 128, Y-Aib-E-G-T-F-T-S-D-Y-S-I-Aib-L-E-K-Q-A-Q-Aib-A-F-V-R-A-L-I-N-K(1,3)-Aib-T-R-Q-R-Y-NH2.C18DA-gGlu-gGlu-gGlu-gGlu-gGlu-gGlu-eLys(1,2)]: the results for the EC50 at hGLP1R (setting [2]), at hGLP1R (setting [3]) and on hGIPR (setting [4]) were 0.7 nM, 4 nM and 0.2 nM, respectively. In addition, the solubility at 2 h in data set [1] came out at 4.1 mg/mL.

For the compound `CC[C@H](C)[C@H](NC(=O)[C@H](CC(C)C)NC(=O)[C@H](Cc1c[nH]cn1)NC(=O)[C@H](CCCNC(=N)N)NC(=O)[C@@H](NC(=O)[C@H](Cc1ccccc1)NC(=O)[C@H](CCC(=O)O)NC(=O)C(C)(C)NC(=O)[C@H](CCC(N)=O)NC(=O)[C@H](C)NC(=O)[C@H](CCC(N)=O)NC(=O)[C@H](CCC(=O)O)NC(=O)[C@H](CCC(=O)O)NC(=O)[C@H](CC(C)C)NC(=O)C(C)(C)NC(=O)[C@@H](NC(=O)[C@H](CO)NC(=O)[C@H](Cc1ccc(O)cc1)NC(=O)[C@H](CC(=O)O)NC(=O)[C@H](CO)NC(=O)[C@@H](NC(=O)[C@H](Cc1ccccc1)NC(=O)[C@@H](NC(=O)CNC(=O)[C@H](CCC(=O)O)NC(=O)C(C)(C)NC(=O)[C@@H](N)Cc1ccc(O)cc1)[C@@H](C)O)[C@@H](C)O)[C@@H](C)CC)C(C)C)C(=O)N[C@@H](CC(N)=O)C(=O)N[C@@H](CCCCNC(=O)CC[C@H](NC(=O)CC[C@H](NC(=O)CC[C@H](NC(=O)CC[C@H](NC(=O)CCCCCCCCCCCCCCCCC(=O)O)C(=O)O)C(=O)O)C(=O)O)C(=O)O)C(=O)NC(C)(C)C(=O)N[C@H](C(=O)N[C@@H](CCCNC(=N)N)C(=O)N[C@@H](CCC(N)=O)C(=O)N[C@@H](CCCNC(=N)N)C(=O)N[C@@H](Cc1ccc(O)cc1)C(N)=O)[C@@H](C)O` [Compound 129, Y-Aib-E-G-T-F-T-S-D-Y-S-I-Aib-L-E-E-Q-A-Q-Aib-E-F-V-R-H-L-I-N-K(1,3)-Aib-T-R-Q-R-Y-NH2.C18DA-gGlu-gGlu-gGlu-gGlu(1,2)] (H-Y[Aib]EGTFTSDYSI[Aib]LEEQAQ[Aib]EFVRHLINK([γGlu-γGlu-γGlu-γGlu-C18 diacid])[Aib]TRQRY-NH2), the EC50 is 0.9 nM at hGLP1R (setting [2]); 2.8 nM at hGLP1R (setting [3]); 0.4 nM on hGIPR (setting [4]); 7.1 nM on hGIPR (100% human plasma, read-out: hGIPR 100% hP). Moreover, the solubility at 2 h in data set [1] turned out to be 5.1 mg/mL.

On to `CC[C@H](C)[C@H](NC(=O)[C@H](CC(C)C)NC(=O)[C@H](Cc1c[nH]cn1)NC(=O)[C@H](CCCNC(=N)N)NC(=O)[C@@H](NC(=O)[C@H](Cc1ccccc1)NC(=O)[C@H](CCC(=O)O)NC(=O)C(C)(C)NC(=O)[C@H](CCC(N)=O)NC(=O)[C@H](C)NC(=O)[C@H](CCC(=O)O)NC(=O)[C@H](CCC(=O)O)NC(=O)[C@H](CCC(=O)O)NC(=O)[C@H](CC(C)C)NC(=O)C(C)(C)NC(=O)[C@@H](NC(=O)[C@H](CO)NC(=O)[C@H](Cc1ccc(O)cc1)NC(=O)[C@H](CC(=O)O)NC(=O)[C@H](CO)NC(=O)[C@@H](NC(=O)[C@H](Cc1ccccc1)NC(=O)[C@@H](NC(=O)CNC(=O)[C@H](CCC(=O)O)NC(=O)C(C)(C)NC(=O)[C@@H](N)Cc1ccc(O)cc1)[C@@H](C)O)[C@@H](C)O)[C@@H](C)CC)C(C)C)C(=O)N[C@@H](CC(N)=O)C(=O)N[C@@H](CCCCNC(=O)COCCOCCNC(=O)COCCOCCNC(=O)CC[C@H](NC(=O)CCCCCCCCCCCCCCCCC(=O)O)C(=O)O)C(=O)NC(C)(C)C(=O)N[C@H](C(=O)N[C@@H](CCCNC(=N)N)C(=O)N[C@@H](CCC(N)=O)C(=O)N[C@@H](CCCNC(=N)N)C(=O)N[C@@H](Cc1ccc(O)cc1)C(N)=O)[C@@H](C)O` [Compound 130, Y-Aib-E-G-T-F-T-S-D-Y-S-I-Aib-L-E-E-E-A-Q-Aib-E-F-V-R-H-L-I-N-K(1,3)-Aib-T-R-Q-R-Y-NH2.C18DA-gGlu-OEG-OEG(1,2)], for which the EC50 on hGLP1R (setting [2]) and on hGIPR (setting [4]) was 0.5 nM throughout. Also, the solubility at 2 h in data set [1] was 5 mg/mL.

For the compound `CC[C@H](C)[C@H](NC(=O)[C@H](CC(C)C)NC(=O)[C@H](Cc1c[nH]cn1)NC(=O)[C@H](CCCNC(=N)N)NC(=O)[C@@H](NC(=O)[C@H](Cc1ccccc1)NC(=O)[C@H](C)NC(=O)C(C)(C)NC(=O)[C@H](CCC(N)=O)NC(=O)[C@H](C)NC(=O)[C@H](CCC(N)=O)NC(=O)[C@H](CCCCN)NC(=O)[C@H](CCC(=O)O)NC(=O)[C@H](CC(C)C)NC(=O)C(C)(C)NC(=O)[C@@H](NC(=O)[C@H](CO)NC(=O)[C@H](Cc1ccc(O)cc1)NC(=O)[C@H](CC(=O)O)NC(=O)[C@H](CO)NC(=O)[C@@H](NC(=O)[C@H](Cc1ccccc1)NC(=O)[C@@H](NC(=O)CNC(=O)[C@H](CCC(=O)O)NC(=O)C(C)(C)NC(=O)[C@@H](N)Cc1ccc(O)cc1)[C@@H](C)O)[C@@H](C)O)[C@@H](C)CC)C(C)C)C(=O)N[C@@H](CC(N)=O)C(=O)N[C@@H](CCCCNC(=O)[C@@H](N)CCCCNC(=O)CC[C@H](NC(=O)CC[C@H](NC(=O)CC[C@H](NC(=O)CC[C@H](NC(=O)CC[C@H](NC(=O)CCCCCCCCCCCCCCCCC(=O)O)C(=O)O)C(=O)O)C(=O)O)C(=O)O)C(=O)O)C(=O)NC(C)(C)C(=O)N[C@H](C(=O)N[C@@H](CCCNC(=N)N)C(=O)N[C@@H](CCC(N)=O)C(=O)N[C@@H](CCCNC(=N)N)C(=O)N[C@@H](Cc1ccc(O)cc1)C(N)=O)[C@@H](C)O` [Compound 141, Y-Aib-E-G-T-F-T-S-D-Y-S-I-Aib-L-E-K-Q-A-Q-Aib-A-F-V-R-H-L-I-N-K(1,3)-Aib-T-R-Q-R-Y-NH2.C18DA-gGlu-gGlu-gGlu-gGlu-gGlu-eLys(1,2)], the EC50 on hGLP1R (setting [2]) is 0.8 nM; at hGIPR (setting [4]), 0.1 nM. In addition, the solubility in data set [1] (read-out: Solubility) was determined as 1.1 mg/mL.

For the compound `CC[C@H](C)[C@H](NC(=O)[C@H](CC(C)C)NC(=O)[C@H](Cc1c[nH]cn1)NC(=O)[C@H](CCCNC(=N)N)NC(=O)[C@@H](NC(=O)[C@H](Cc1ccccc1)NC(=O)[C@H](CCC(=O)O)NC(=O)C(C)(C)NC(=O)[C@H](CCC(N)=O)NC(=O)[C@H](C)NC(=O)[C@H](CCC(N)=O)NC(=O)[C@H](CCCCN)NC(=O)[C@H](CCC(=O)O)NC(=O)[C@H](CC(C)C)NC(=O)C(C)(C)NC(=O)[C@@H](NC(=O)[C@H](CO)NC(=O)[C@H](Cc1ccc(O)cc1)NC(=O)[C@H](CC(=O)O)NC(=O)[C@H](CO)NC(=O)[C@@H](NC(=O)[C@H](Cc1ccccc1)NC(=O)[C@@H](NC(=O)CNC(=O)[C@H](CCC(=O)O)NC(=O)C(C)(C)NC(=O)[C@@H](N)Cc1ccc(O)cc1)[C@@H](C)O)[C@@H](C)O)[C@@H](C)CC)C(C)C)C(=O)N[C@@H](CC(N)=O)C(=O)N[C@@H](CCCCNC(=O)[C@@H](N)CCCCNC(=O)CC[C@H](NC(=O)CC[C@H](NC(=O)CC[C@H](NC(=O)CC[C@H](NC(=O)CC[C@H](NC(=O)CC[C@H](NC(=O)CCCCCCCCCCCCCCCCC(=O)O)C(=O)O)C(=O)O)C(=O)O)C(=O)O)C(=O)O)C(=O)O)C(=O)NC(C)(C)C(=O)N[C@H](C(=O)N[C@@H](CCCNC(=N)N)C(=O)N[C@@H](CCC(N)=O)C(=O)N[C@@H](CCCNC(=N)N)C(=O)N[C@@H](Cc1ccc(O)cc1)C(N)=O)[C@@H](C)O` [Compound 145, Y-Aib-E-G-T-F-T-S-D-Y-S-I-Aib-L-E-K-Q-A-Q-Aib-E-F-V-R-H-L-I-N-K(1,3)-Aib-T-R-Q-R-Y-NH2.C18DA-gGlu-gGlu-gGlu-gGlu-gGlu-gGlu-eLys(1,2)], the values for the EC50 on hGLP1R (setting [2]), on hGLP1R (setting [3]) and on hGIPR (setting [4]) were 0.5 nM, 1.8 nM and 0.3 nM, respectively. Besides, the solubility at 2 h in data set [1] stood at 5 mg/mL.
